According to patent publication US20250170141A1, “MRGPRX2 MODULATORS AND RELATED METHODS OF TREATMENT” (Escient Pharmaceuticals, Inc., priority 2023, published 2025):
Like-named read-outs stand apart in the source and are kept apart here.

Experiments:
human MRGPRX2 = biological target: T1, human MRGPRX2 (Homo sapiens, UniProt Q96LB1); test: MRGPRX2 activity: IP-One Gq HTRF assay in CHO cells, antagonism versus 0.3 uM Cortistatin-14; type: cell-based; settings: versus 0.3 uM Cortistatin-14 agonist, CHO cells expressing human MRGPRX2, read-out: MRGPRX2 Antagonist Activity
T1 construct: expressed in transfected cells; host or cells: CHO cells, stably transfected (G418 and Hygromycin B selection)
T1 sequence (Q96LB1 1-330): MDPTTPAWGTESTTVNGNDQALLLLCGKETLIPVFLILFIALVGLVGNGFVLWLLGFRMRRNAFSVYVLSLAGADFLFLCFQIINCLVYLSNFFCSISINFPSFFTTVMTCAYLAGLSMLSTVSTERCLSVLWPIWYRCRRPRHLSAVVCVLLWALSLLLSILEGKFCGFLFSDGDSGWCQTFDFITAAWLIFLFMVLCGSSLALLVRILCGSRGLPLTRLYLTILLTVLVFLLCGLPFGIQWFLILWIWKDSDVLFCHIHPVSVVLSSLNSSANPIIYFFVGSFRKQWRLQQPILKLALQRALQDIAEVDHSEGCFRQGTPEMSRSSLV
Procedure, shortened: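 CHO cells stably expressing human MRGPRX2 were treated with a 10-point compound curve (30 uM top, 1:3) plus 0.3 μM Cortistatin-14 in LiCl-containing Tris buffer, pH 8. Incubation was 1 h at 37 °C then 1 h at room temperature; IP-1 was detected by HTRF and IC50 came from the HTRF ratio.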

Human LAD2 cells = test: Mast Cell Beta-Hexosaminidase Release Assay (LAD2 cells, 500 nM Cortistatin-14); type: cell-based; settings: Homo sapiens, LAD2, Mast Cell Beta-Hexosaminidase Release Assay, read-out: MRGPRX2 Antagonist Activity
Description: Human LAD2 cells (NIH) were maintained in an incubator at 37° C. with 5% CO2 and cultured in StemPro-34 serum-free media (Gibco 10639011) supplemented with 2 mM L-glutamine, 100 U/ml penicillin, […] streptomycin and 100 ng/ml SCF (Invitrogen PEP0860), at a concentration of 2-5×10^5 cells/mL, with hemidepletion every 1-2 weeks.
Cells were transferred to SCF-Free medium at 2.5×10^5 cells/mL and kept in an incubator overnight. On the day of the assay, cells were washed twice in Assay Buffer (final concentrations 10 mM HEPES, 137 mM NaCl, 5.6 mM D-glucose, 2.7 mM KCl, 1 mM MgCl, 1.8 mM CalCl2, 0.4 mM Na2HPO4·7H2O, 0.04% BSA, pH=7.4) and plated in a 96-well v-bottom plate at 20,000 cells per well in 80 μL Assay Buffer. Antagonist compounds solubilized at 10 mM in DMSO were diluted in Assay Buffer to 10× final desired concentrations as a 10-point curve (10 μM final top concentration with 1:3 serial dilutions) and 10 μL added per well. Plates were then incubated for 1 hour at 37° C. Agonists were diluted in Assay Buffer to 10× desired concentrations and 10 μL of the appropriate agonist added to each well. The final concentration of Cortistatin-14 (Tocris 3374) used in antagonist assays was 500 nM. Final concentrations of DMSO were kept consistent across the plate. Plates were then incubated in a warm air oven for 30 minutes at 37° C., followed by centrifugation at 4° C. for 5 minutes at 450×g. 50 μL supernatant from each well was then transferred to a 96-well flat bottom plate containing 100 μL substrate solution per well (3.5 mg/mL p-Nitrophenyl-N-acetyl-o-D-glucosaminide (Sigma 487052) in Citrate Buffer containing a final concentration of 40 mM Citric Acid, 20 mM Na2HPO4·7H2O, pH=4.5). To the cell pellets left in the remaining assay buffer, 150 μL 0.1% Triton-X-100 was then added to each well, resuspended by pipetting up and down, and 50 μL cell lysates transferred to a second 96-well flat bottom plate containing 100 μL substrate solution per well. Plates containing transferred supernatant and cell lysates were then incubated in a warm air oven for 90 minutes at 37° C. After incubation, 50 μL of 400 mM Glycine buffer (pH 10.7) was added into each well and the plate was read on a Molecular Devices SpectraMax iD5 plate reader (absorbance at 405 nm with reference filter at 620 nm). After background subtraction, the percentage degranulation (percent beta-hexosaminidase release) was calculated as 100×(supernatant values)/(supernatant+lysate values), followed by analysis using GraphPad Prism software to calculate an IC50 value for each compound.
The activity ranges are denoted as follows: “+++++” denotes antagonist activity <100 nM; “++++” denotes antagonist activity between 100 and 500 nM; “+++” denotes activity between 501 and 1000 nM; “++” denotes activity between 1001 and 2500 nM; and “+” denotes activity >2500 nM.

[1] = Mouse Pharmacokinetic Studies (50 mg/kg oral gavage, plasma LC-MS/MS); type: in vivo; settings: male C57BL/6 mice, non-fasted
Description: Compounds were formulated in 5% DMSO, 5% Solutol, and 90% PBS without Ca and Mg (pH 7.4) at a concentration of […]. Male C57BL/6 mice (n=6/compound) were administered a 50 mg/kg dose of each compound by oral gavage under a non-fasted condition. Blood samples were collected via the Submandibular vein onto K2-EDTA at 0.5, 1, 2, 4, 8 and 24 hours after dosing, and plasma was prepared and stored at −80° C. until analysis. Plasma sample preparation for analysis was done by protein precipitation using acetonitrile (including Verapamil as an internal standard) followed by centrifugation. Compound concentrations were determined in extracted plasma using LC-MS/MS relative to a 12-point standard curve covering the 1 to 4000 nM range. Non-compartmental analysis using Phoenix WinNonlin was used to estimate pharmacokinetic parameters including area under the curve, clearance, and half-life. The administered dose was confirmed by analysis of residual dosing material by UPLC-UV relative to a single point calibration sample.

[2] = Solubility Studies in FaSSIF, FeSSIF, FaSSGF (24 hours, room temperature, UPLC-UV); type: physicochemical; settings: kinetic from dmso stock, 24 hours at room temperature
Description: Media according to Biorelevant Media protocols was prepared. 10 μL of 10 mM in DMSO stock solutions of test compounds was added to 96-well deep plate. 490 μL of FaSSIF, FeSSIF, or FaSSGF was then added into appropriate wells of 96-well deep plate. The plate was vortexed for 2 minutes then placed on a plate shaker for 24 hours at room temperature. The plate was centrifuged for 20 minutes, then supernatant was collected and filtered with […] syringe filter into UPLC vials for injection into UPLC-UV system. Concentration was calculated with a 3-point standard curve.

[3] = male, C57BL/6, mouse, po, 50 mg/kg

Compound: O=S1(=O)N=C(NCc2ncccc2F)Nc2c(Oc3ccccc3Cl)cc(F)cc21 [Compound 1-264, 5-(2-chlorophenoxy)-7-fluoro-3-(((3-fluoropyridin-2-yl)methyl)amino)-4H-benzo[e][1,2,4]thiadiazine 1,1-dioxide]
- IC50 (human MRGPRX2): < 100 nM
- IC50 (Human LAD2 cells): < 100 nM
- TBC [1]: 32 mL/min/kg
- Cmax [1, 3]: 1100 nM
- half-life [1, 3]: 3.8 h
- solubility kinetic at 24 h ([2]; fassgf or other biorelevant, solubility in FaSSGF, read-out: FaSSGF): < 12.5 µM
- solubility kinetic at 24 h ([2]; solubility in FaSSIF, read-out: FaSSIF): < 12.5 µM
- solubility kinetic at 24 h ([2]; solubility in FeSSIF, read-out: FeSSIF): < 12.5 µM
